Consider eleven molecules from ChEMBL document CHEMBL1201862, “PubChem BioAssay data set” (2004).

Activity calls are given as the source filed them.

For one test, the target named is T1, X-box-binding protein 1 (Homo sapiens, UniProt P17861).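 Also: confirmatory dose-response counter-screen serving a CHOP assay.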
T1 sequence (P17861 whole entry): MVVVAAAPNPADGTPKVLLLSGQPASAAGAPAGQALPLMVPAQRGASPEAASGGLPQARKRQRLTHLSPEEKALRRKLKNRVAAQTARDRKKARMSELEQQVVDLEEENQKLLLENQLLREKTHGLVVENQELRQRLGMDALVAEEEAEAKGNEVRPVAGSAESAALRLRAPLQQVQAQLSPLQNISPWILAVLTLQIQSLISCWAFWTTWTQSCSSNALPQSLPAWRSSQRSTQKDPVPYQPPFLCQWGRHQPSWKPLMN
Format: functional, Cricetulus griseus.

In a further test the test system is Vero. Put plainly: host cell cytotoxicity of antiviral hits, dose response, cytotoxicity control for West Nile virus antiviral project, secondary assay (AID 1650). Format: functional. Conditions: Chlorocebus sabaeus.
For the next test, the target named is T2, Aspartyl aminopeptidase (Plasmodium falciparum 3D7, UniProt Q8I2J3).
T2 sequence (Q8I2J3 whole entry): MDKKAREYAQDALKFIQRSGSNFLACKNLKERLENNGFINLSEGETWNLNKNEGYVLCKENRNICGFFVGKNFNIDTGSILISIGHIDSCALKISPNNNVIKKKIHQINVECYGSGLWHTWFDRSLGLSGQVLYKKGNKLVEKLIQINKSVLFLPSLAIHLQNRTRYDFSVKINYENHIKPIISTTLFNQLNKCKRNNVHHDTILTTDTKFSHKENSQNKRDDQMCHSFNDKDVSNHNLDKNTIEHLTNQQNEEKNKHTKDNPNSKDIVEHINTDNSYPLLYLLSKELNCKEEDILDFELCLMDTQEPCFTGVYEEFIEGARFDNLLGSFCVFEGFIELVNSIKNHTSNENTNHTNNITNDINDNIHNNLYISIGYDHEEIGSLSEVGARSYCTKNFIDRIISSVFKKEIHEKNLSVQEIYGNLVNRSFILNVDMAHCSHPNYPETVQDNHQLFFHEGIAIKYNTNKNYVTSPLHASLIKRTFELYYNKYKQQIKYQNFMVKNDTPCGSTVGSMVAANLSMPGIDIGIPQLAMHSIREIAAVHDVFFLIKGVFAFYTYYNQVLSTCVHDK
Put plainly: Counterscreen for inhibitors of M1 and M17 aminopeptidases: QFRET-based biochemical high throughput dose response assay for inhibitors of the Plasmodium falciparum M18 Aspartyl Aminopeptidase (PFM18AAP). [Related PubChem assays: 1619 (Screening assay (M17LAP inhibitors).), 1445 (Screening assay (M1AAP inhibitors).)]. For orientation: The purpose of a counterscreen is to sort out artefacts and off-target activity.

The target in the next test is T3, Aminopeptidase N (Plasmodium falciparum FcB1/Columbia, UniProt O96935).
T3 sequence (O96935 whole entry): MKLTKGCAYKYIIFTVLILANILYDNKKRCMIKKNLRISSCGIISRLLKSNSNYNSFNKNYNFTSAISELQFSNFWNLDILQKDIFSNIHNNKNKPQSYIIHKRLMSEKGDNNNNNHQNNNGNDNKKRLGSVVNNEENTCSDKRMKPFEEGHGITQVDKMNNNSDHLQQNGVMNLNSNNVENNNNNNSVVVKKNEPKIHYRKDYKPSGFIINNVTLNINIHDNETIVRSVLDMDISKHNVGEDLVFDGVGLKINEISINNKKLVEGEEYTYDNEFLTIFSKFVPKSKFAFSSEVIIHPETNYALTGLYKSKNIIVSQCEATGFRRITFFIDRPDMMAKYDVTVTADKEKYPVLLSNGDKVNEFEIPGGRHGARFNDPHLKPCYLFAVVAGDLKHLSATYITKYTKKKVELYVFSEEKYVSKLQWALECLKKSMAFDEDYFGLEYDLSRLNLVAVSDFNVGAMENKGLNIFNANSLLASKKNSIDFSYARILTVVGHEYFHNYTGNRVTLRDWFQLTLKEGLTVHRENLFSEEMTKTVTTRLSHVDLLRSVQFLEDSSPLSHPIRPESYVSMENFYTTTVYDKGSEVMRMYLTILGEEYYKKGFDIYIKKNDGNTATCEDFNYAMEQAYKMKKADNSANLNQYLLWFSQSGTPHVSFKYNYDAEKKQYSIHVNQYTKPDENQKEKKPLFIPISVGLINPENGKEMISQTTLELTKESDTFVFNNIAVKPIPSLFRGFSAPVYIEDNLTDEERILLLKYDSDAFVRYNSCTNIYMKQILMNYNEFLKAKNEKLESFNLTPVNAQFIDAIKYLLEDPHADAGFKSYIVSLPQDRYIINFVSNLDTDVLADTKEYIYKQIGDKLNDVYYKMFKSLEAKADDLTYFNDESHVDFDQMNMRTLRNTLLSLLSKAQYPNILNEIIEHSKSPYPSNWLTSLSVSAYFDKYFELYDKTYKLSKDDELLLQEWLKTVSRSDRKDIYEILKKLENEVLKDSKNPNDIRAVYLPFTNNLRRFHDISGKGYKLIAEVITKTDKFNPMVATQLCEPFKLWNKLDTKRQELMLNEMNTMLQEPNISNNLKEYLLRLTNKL
Put plainly: P. falciparum M1AAP inhibitors, biochemical, fluorogenic H-Leu-NHMec substrate, 1536-well (AID 1445). Also on record: species or system Plasmodium falciparum 3D7, 3D7.

For the next test, the target named is Procathepsin L (Homo sapiens, UniProt P07711). Briefly: cathepsin L inhibitors, dose response, counter-screen for M1/M17 aminopeptidase inhibitor project, biochemical, QFRET, 1536-well (AID 2214).
Chain of Procathepsin L (P07711 whole entry): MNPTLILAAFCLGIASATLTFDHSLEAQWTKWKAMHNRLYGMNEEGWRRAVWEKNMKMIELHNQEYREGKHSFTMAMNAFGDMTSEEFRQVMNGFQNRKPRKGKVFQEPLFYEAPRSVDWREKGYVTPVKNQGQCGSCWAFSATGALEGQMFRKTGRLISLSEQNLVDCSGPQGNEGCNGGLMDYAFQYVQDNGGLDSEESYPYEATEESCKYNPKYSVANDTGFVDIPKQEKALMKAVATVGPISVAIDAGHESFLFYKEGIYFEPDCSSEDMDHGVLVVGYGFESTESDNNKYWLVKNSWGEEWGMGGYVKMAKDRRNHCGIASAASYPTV
A further test has as its target T4, Leucine aminopeptidase (Plasmodium falciparum 3D7, UniProt Q8IL11).
T4 sequence (Q8IL11 whole entry): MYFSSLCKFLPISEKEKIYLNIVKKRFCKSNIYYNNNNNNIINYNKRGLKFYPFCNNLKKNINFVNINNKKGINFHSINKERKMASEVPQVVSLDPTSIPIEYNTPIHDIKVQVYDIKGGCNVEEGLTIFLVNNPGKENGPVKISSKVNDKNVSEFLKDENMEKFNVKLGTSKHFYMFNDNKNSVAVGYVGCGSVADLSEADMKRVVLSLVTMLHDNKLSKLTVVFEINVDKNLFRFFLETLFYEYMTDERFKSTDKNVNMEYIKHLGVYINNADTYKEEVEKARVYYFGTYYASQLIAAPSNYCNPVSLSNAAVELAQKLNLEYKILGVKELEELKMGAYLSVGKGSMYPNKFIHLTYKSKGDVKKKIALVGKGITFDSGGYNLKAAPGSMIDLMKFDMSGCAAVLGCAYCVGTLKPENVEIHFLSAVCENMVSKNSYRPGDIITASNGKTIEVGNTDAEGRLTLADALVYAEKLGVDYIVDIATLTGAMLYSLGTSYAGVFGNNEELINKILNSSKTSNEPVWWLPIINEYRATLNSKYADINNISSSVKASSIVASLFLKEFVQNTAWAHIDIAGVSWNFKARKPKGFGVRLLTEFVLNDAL
Briefly: P. falciparum M17LAP inhibitors, primary screen, biochemical, fluorogenic H-Leu-NHMec substrate, 1536-well (AID 1619). Format: functional.

Test [1] is described as follows: intracellular Trypanosoma cruzi inhibitors in host cells – cell-based, plate reader, cherry-pick samples, set 3, dose response (AID 651818).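 Also: compounds incubated with infected cells for about four days.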 Format: functional.
A short description of test [2]: inhibitors of HIV Env-driven cell fusion, dose response, cherry-pick (AID 652057). Format: functional, cell-based.
The nature of test [3]: off-target signal loss in HeLa-CEM21 co-culture – HeLa F-luc CTL cells, cherry-picked, counter-screen for HIV-1 Env fusion inhibitor project, dose response (AID 652040).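 Also: potency for signal decrease marking cytotoxic or nonspecific inhibition.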 Format: functional, cell-based.
Test [4] can be described thus: inhibitors of clade B AD8 Env fusion, dose response, cell-based, cherry-pick (AID 652062).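 Also: luciferase signal from cell-cell fusion driven by HIV-1 clade B AD8 Env; potency is for inhibitors of fusion seen as a drop in luminescence.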 Format: functional.
Test [5] addresses T5, Short transient receptor potential channel 4 (Mus musculus, UniProt Q9QUQ5).
T5 sequence (Q9QUQ5 whole entry): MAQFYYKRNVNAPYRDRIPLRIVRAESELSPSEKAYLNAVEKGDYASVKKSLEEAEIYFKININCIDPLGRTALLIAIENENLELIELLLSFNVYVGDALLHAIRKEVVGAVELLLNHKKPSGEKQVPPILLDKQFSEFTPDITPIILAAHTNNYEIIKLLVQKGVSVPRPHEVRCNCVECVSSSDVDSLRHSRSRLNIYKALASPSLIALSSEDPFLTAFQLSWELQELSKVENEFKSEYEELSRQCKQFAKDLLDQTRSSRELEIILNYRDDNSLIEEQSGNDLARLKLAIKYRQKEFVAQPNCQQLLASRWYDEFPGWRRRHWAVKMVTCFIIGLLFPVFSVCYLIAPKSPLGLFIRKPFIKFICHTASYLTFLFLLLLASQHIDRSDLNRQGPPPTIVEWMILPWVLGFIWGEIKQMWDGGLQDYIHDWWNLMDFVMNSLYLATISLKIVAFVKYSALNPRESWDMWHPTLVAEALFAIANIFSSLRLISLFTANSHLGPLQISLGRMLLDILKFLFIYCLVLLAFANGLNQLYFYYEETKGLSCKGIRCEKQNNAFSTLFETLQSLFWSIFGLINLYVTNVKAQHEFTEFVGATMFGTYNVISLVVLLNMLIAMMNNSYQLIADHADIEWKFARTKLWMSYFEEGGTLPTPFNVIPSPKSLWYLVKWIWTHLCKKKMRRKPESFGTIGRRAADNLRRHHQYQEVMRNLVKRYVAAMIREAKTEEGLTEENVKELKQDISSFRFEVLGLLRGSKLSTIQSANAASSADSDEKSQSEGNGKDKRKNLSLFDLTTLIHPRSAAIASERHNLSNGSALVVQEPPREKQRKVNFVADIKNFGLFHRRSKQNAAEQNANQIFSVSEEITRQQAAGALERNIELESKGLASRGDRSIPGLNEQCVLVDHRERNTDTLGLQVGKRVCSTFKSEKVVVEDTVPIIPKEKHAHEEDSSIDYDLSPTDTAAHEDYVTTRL
Briefly: mouse TRPC4 channel inhibitors, dose response, cell-based, HEK293 TRPC4/mu-opioid, Fluo-4 calcium (AID 434942).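 Also: potency of inhibitors blocking the TRPC4 calcium response.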 Format: functional.

The nature of test [6]: ZM109 Env clade C HIV-1 fusion inhibitors, dose response, HeLa effector, CEM target cells, luciferase, cherry-pick (AID 652058). Format: functional, cell-based.

One may read the CC50 as the concentration at which the toxic effect on the cells reaches its halfway point. As for `CCC(=O)N1N=C(c2c(O)nc3ccc(Cl)cc3c2-c2ccccc2)CC1c1ccco1` (configuration not stated), on X-box-binding protein 1, the “Absolute IC50 (XBP1)” value was found to be 10 µM. The CC50 with Vero was 73.3 µM (active).
In general, IC50 refers to the concentration that gives 50% inhibition. On to `O=C(Nn1c(Cc2cccs2)nc2ccccc2c1=O)c1cccs1`, for which the values for the IC50 against Aspartyl aminopeptidase, at Aminopeptidase N and against Procathepsin L were > 73.5 µM (not active), 11.9 µM (active) and > 59.6 µM (not active), respectively.
On to `CCc1cc2ccccc2nc1SCC(=O)Nc1cc(OC)c(OC)cc1C(=O)O`, for which the IC50 was > 73.5 µM (not active) at Aspartyl aminopeptidase, < 1 µM (active) on Leucine aminopeptidase and > 59.6 µM (not active) at Procathepsin L.
The corresponding values for `Cc1ccc(-n2c(C)cc(C(=O)COC(=O)c3ccc[nH]c3=O)c2C)cc1` are > 73.5 µM (not active), 1.22 µM (active) and > 59.6 µM (not active).
One may read the AC50 as the concentration giving half of the maximal activity seen. Consider `C[C@@H]1CN([C@H](C)CO)C(=O)c2cccc(NC(=O)C3CCCCC3)c2O[C@H]1CN(C)Cc1ccc(Cl)c(Cl)c1`, for which, in test [1], the concentration at half-maximal activity (AC50) was 3.93 µM (active).
With `C[C@H]1CN([C@@H](C)CO)C(=O)c2cc(NS(=O)(=O)c3ccc(F)cc3)ccc2O[C@@H]1CN(C)Cc1ccc(Oc2ccccc2)cc1`, the AC50 in test [1] is 3.72 µM (active).
The term EC50 denotes the midpoint of the concentration-response curve. For `O=C(Nc1ccccc1N1CCN(C(=O)c2ccccc2)CC1)c1ccc(Br)o1`, the concentration at half-maximal activity (AC50) in [2] is 10.2 µM (active); in test [3], 15.2 µM (active); in test [4], 11 µM (active); in test [6], 12.1 µM (active). Also, the concentration giving a half-maximal response (EC50) in test [5] was 0.596 µM (active).
`CCCNCc1cc(Br)ccc1OCC(=O)NCCc1ccccc1`: the EC50 in test [5] was 0.841 µM (active).
`CCC(C)NCCOCCOc1ccccc1-c1ccccc1` (configuration not stated): the half-maximal effective concentration (EC50) in test [5] was 1.19 µM (active).
In the case of `Oc1ccc(Br)cc1-c1nc2cnccn2c1NC1CCCCC1`, the “Absolute IC50 (XBP1)” value at X-box-binding protein 1 was 10 µM.
Turning to `Clc1ccc(COc2ccccc2CNCc2cccnc2)cc1`, the EC50 in test [5] was 2.99 µM (active).
